Experiments:
[1] = target: T1, Alpha-2A adrenergic receptor (Homo sapiens, UniProt P08913); assay type: functional, cell-based
T1 sequence (P08913 whole entry): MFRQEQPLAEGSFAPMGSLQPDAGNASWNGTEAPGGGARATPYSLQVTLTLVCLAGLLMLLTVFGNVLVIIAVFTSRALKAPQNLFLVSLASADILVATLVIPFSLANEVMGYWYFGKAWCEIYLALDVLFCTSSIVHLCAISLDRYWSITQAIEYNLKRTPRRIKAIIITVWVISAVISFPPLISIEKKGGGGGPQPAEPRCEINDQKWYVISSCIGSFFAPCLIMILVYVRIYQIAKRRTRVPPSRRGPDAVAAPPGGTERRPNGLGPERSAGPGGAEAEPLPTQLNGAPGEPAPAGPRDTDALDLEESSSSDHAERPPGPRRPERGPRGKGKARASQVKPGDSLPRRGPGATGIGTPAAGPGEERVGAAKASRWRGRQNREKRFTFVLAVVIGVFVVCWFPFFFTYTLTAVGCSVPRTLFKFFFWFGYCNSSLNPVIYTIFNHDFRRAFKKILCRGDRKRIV

[2] = target: T1, Alpha-2A adrenergic receptor; assay type: functional, cell-based; remark: listed apart in the source
Cannabinoid receptor 1 = Cannabinoid receptor 1 (Homo sapiens, UniProt P21554); assay type: functional, cell-based
Sequence of Cannabinoid receptor 1 (P21554 whole entry): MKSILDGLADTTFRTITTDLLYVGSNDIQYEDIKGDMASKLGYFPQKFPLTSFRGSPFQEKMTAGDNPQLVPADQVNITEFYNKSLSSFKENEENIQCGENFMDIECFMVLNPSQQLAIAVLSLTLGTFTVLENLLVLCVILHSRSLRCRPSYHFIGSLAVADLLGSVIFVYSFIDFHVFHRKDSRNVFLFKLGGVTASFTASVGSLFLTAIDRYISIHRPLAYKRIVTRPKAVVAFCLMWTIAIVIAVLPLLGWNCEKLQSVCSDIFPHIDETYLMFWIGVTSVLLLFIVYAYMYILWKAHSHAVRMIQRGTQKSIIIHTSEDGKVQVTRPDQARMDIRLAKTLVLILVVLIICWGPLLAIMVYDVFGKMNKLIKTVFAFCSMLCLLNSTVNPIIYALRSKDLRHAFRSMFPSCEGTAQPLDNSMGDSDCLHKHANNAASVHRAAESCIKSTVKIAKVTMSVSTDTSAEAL

Glucocorticoid receptor = target: T2, Glucocorticoid receptor (Homo sapiens, UniProt P04150)
T2 sequence (P04150 whole entry): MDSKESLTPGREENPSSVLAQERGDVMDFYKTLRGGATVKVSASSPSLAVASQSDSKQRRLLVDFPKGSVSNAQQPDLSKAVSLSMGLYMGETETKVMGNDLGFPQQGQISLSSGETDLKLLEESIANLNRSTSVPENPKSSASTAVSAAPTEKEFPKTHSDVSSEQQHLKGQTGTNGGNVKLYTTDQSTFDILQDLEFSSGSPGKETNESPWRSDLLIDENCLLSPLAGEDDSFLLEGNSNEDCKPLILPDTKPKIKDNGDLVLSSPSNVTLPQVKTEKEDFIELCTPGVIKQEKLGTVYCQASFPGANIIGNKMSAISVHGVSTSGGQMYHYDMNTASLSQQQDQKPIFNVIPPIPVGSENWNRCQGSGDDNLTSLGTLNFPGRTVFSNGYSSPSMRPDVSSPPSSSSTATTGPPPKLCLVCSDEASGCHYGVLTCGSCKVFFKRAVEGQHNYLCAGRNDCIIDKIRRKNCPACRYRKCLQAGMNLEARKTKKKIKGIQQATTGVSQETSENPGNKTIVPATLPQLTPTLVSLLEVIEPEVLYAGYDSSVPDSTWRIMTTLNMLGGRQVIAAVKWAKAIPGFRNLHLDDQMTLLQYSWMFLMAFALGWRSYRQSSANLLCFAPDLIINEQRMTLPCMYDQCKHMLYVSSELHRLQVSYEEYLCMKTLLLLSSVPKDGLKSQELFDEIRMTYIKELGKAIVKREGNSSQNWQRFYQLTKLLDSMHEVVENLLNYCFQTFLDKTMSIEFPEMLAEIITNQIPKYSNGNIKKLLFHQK

Progesterone receptor = target: T3, Progesterone receptor (Homo sapiens, UniProt P06401); assay type: functional
T3 sequence (P06401 whole entry): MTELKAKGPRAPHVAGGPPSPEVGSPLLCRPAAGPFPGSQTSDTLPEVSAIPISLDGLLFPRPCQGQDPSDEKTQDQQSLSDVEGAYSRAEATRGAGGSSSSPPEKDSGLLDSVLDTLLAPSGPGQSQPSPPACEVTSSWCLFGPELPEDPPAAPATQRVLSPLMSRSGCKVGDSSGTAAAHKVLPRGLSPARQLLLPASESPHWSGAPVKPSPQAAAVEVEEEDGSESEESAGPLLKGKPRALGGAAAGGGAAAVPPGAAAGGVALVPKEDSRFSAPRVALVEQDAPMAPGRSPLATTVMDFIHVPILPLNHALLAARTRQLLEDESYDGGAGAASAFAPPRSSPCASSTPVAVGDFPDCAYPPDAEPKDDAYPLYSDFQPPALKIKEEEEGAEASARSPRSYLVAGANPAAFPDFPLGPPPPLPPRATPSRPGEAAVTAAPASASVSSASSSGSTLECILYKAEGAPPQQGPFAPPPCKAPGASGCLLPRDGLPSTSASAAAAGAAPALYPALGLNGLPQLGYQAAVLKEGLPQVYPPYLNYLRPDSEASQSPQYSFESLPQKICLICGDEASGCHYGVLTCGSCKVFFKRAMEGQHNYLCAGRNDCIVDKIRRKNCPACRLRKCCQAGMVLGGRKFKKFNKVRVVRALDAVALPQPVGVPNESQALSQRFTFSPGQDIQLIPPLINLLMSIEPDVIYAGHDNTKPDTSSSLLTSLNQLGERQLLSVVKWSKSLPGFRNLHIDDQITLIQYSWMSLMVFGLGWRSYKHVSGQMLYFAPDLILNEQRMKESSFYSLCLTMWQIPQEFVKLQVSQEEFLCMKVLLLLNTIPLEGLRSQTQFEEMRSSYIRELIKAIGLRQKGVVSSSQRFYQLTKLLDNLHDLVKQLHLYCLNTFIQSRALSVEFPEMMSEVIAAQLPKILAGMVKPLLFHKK

[3] = target: T4, Prostaglandin G/H synthase 1 (Rattus norvegicus, UniProt Q63921); assay type: functional
T4 sequence (Q63921 whole entry): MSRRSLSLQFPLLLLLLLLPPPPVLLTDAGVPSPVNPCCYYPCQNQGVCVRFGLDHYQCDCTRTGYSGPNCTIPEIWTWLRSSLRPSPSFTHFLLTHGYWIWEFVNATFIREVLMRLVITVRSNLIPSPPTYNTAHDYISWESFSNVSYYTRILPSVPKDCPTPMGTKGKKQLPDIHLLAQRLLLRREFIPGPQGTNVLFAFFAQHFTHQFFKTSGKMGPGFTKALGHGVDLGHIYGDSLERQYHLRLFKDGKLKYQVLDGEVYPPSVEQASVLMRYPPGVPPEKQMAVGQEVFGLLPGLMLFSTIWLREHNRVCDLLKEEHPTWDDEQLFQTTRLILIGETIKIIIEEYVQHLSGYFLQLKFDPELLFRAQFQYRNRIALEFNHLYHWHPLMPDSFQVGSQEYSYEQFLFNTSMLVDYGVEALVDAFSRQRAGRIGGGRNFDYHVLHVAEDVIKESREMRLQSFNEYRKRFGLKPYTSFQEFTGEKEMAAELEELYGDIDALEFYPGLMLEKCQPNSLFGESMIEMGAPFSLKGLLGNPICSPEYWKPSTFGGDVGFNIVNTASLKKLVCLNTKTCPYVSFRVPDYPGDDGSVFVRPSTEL
Further: assay procedure not described here.

Row | SMILES | AC50 [1] [µM] | AC50 [2] [µM] | AC50 (Cannabinoid receptor 1) [µM] | AC50 (Glucocorticoid receptor) [µM] | AC50 (Progesterone receptor) [µM] | AC50 [3] [µM]
1 | N#Cc1ccccc1-c1cc(-c2ccccn2)cn(-c2ccccc2)c1=O | > 30 | > 30 | > 30 | > 30 | > 30 | > 30
2 | N=C(N)NCCCCCCC(=O)NC(O)C(=O)NCCCCNCCCN (configuration not stated) | > 30 | > 30 | > 30 | > 30 | > 30 | > 30
3 | COc1ccc(/C=C/C(=O)Nc2ccccc2C(=O)O)cc1OC | > 30 | > 30 | – | > 30 | > 30 | 7.4
4 | C=C[C@@]1(C)CC(=O)[C@]2(O)[C@@]3(C)[C@@H](O)CCC(C)(C)[C@@H]3[C@H](OC(=O)CCN(C)C)[C@H](OC(C)=O)[C@@]2(C)O1 | > 30 | > 30 | > 30 | > 30 | > 30 | > 30
5 | Nc1ccc(C(=O)O)c(O)c1 [AMINOSALICYLIC ACID] | > 30 | > 30 | > 30 | > 30 | > 30 | > 30
6 | CC(=O)OCC(=O)[C@@]1(O)CC[C@H]2[C@@H]3CCC4=CC(=O)CC[C@]4(C)C3=CC[C@@]21C [ANECORTAVE ACETATE] | > 10 | > 10 | > 30 | 1.7 | > 30 | > 10
7 | O=C(CCCN1CCC(n2c(O)nc3ccccc32)CC1)c1ccc(F)cc1 [BENPERIDOL] | > 30 | 19.2 | > 30 | > 30 | 29 | > 30
8 | CCN(CC)C(=O)C1CN2CCc3cc(OC)c(OC)cc3C2CC1OC(C)=O (configuration not stated) [BENZQUINAMIDE] | > 30 | 0.735 | > 30 | > 30 | > 30 | 2.72
9 | COc1cc(OC)c(C(=O)CCCN2CCCC2)c(OC)c1 [BUFLOMEDIL] | > 30 | 6.1 | > 30 | > 30 | > 30 | > 30
10 | CCCCC1(CC)C(=O)NC(=O)NC1=O [BUTETHAL] | > 30 | > 30 | > 30 | > 30 | > 30 | > 30
11 | CCCCCCNC(=O)n1cc(F)c(=O)[nH]c1=O [CARMOFUR] | > 30 | > 30 | – | > 30 | > 30 | > 30
12 | COCCOC(=O)C1=C(C)NC(C)=C(C(=O)OC/C=C/c2ccccc2)C1c1cccc([N+](=O)[O-])c1 (configuration not stated) [CILNIDIPINE] | > 30 | – | > 30 | 6.5 | > 30 | > 30
13 | COc1cccc2c1C(=O)c1c(O)c3c(c(O)c1C2=O)C[C@@](O)(C(C)=O)C[C@@H]3O[C@H]1C[C@H](N)[C@H](O)[C@H](C)O1 [DAUNORUBICIN] | – | – | – | 0.11 | > 3 | > 30
14 | CC(C)c1cc2c(cc1S(=O)(=O)O)[C@@]1(C)CCC[C@@](C)(C(=O)O)[C@@H]1CC2 [ECABET] | > 30 | > 30 | > 30 | – | > 30 | > 30
15 | COC(=O)N[C@@H](C)CNc1nccc(-c2cn(C(C)C)nc2-c2cc(Cl)cc(NS(C)(=O)=O)c2F)n1 [ENCORAFENIB] | > 30 | > 30 | – | > 30 | > 30 | > 30
16 | Nc1nc(F)nc2c1ncn2[C@@H]1O[C@H](COP(=O)(O)O)[C@@H](O)[C@@H]1O [FLUDARABINE PHOSPHATE] | > 30 | > 30 | – | > 30 | > 30 | > 30
17 | CN(c1nccc(=O)[nH]1)C1CCN(c2nc3ccccc3n2Cc2ccc(F)cc2)CC1 [MIZOLASTINE] | > 30 | 23 | > 30 | – | > 30 | > 30
18 | CC(=O)O[C@H]1C[C@@H]2CC[C@@H]3[C@H](CC[C@@]4(C)[C@H]3C[C@H]([N+]3(C)CCCCC3)[C@@H]4OC(C)=O)[C@@]2(C)C[C@@H]1[N+]1(C)CCCCC1 [PANCURONIUM] | > 10 | > 10 | – | > 10 | > 10 | > 10
19 | CC1(C)C(C=C(Cl)Cl)C1C(=O)OCc1cccc(Oc2ccccc2)c1 (configuration not stated) [PERMETHRIN] | > 10 | 9.7 | – | > 30 | > 30 | > 10
20 | Cc1ccc(=O)n(-c2ccccc2)c1 [PIRFENIDONE] | > 30 | > 30 | > 30 | – | > 30 | > 30
21 | CCN(CC)CC(=O)Oc1ccc(NC(C)=O)cc1 [PROPACETAMOL] | > 30 | > 30 | > 30 | > 30 | > 30 | –
22 | CC(NCCc1ccc(O)cc1)C(O)c1ccc(O)cc1 (configuration not stated) [RITODRINE] | > 30 | > 30 | – | > 30 | > 30 | > 30
23 | COc1c(O[C@@H]2O[C@H](CO)[C@@H](O)[C@H](O)[C@H]2O)cc2c(c1OC)-c1ccc(SC)c(=O)cc1[C@@H](NC(C)=O)CC2 [THIOCOLCHICOSIDE] | > 30 | > 30 | > 30 | – | > 30 | > 30
24 | Cc1cccc(N(C)C(=S)Oc2ccc3ccccc3c2)c1 [TOLNAFTATE] | > 10 | > 10 | – | > 30 | > 30 | > 10
